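Method: 48-hour compound exposure of cells in 96-well plates, five concentrations, linear interpolation of endpoints. GI50: concentration for 50% inhibition of growth. TGI: total growth inhibition.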
Assays:
Experiment in all cases: DTP human tumour cell line panel, 48 h
[1] = test system: HOP-62 NSCLC
[2] = test system: CCRF-CEM leukemia
[3] = test system: HL-60(TB) leukemia
[4] = test system: A498 renal
[5] = test system: A549 NSCLC
[6] = test system: SK-OV-3 ovarian
[7] = test system: RPMI-8226 leukemia
[8] = test system: U251 CNS
[9] = test system: M14 melanoma
[10] = test system: T-47D breast
[11] = test system: SNB-19 CNS
[12] = test system: OVCAR-4 ovarian
[13] = test system: NCI-H23 lung
[14] = test system: SR leukemia
[15] = test system: KM12 colon
[16] = test system: OVCAR-3 ovarian
[17] = test system: NCI/ADR-RES ovarian
[18] = test system: SK-MEL-5 melanoma
[19] = test system: MALME-3M melanoma
[20] = test system: HOP-92 NSCLC
[21] = test system: EKVX NSCLC
[22] = test system: SF-268 CNS
[23] = test system: MCF7 breast
[24] = test system: PC-3 prostate
[25] = test system: MDA-MB-231 breast
[26] = test system: MDA-MB-435
[27] = test system: CAKI-1 renal
[28] = test system: HCC-2998 colon
[29] = test system: NCI-H522 lung

SMILES: S=C(NCc1ccc2c(c1)OCO2)N1CCN(c2ncnc3c2oc2ccccc23)CC1
- GI50 [1]: > 100 µM
- TGI [1]: > 100 µM
- GI50 [2]: > 82.7 µM
- TGI [2]: > 100 µM
- GI50 [3]: 4.87 µM
- TGI [3]: > 95.4 µM
- GI50 [4]: 4.42 µM
- TGI [4]: > 100 µM
- GI50 [5]: 7.24 µM
- TGI [5]: > 100 µM
- GI50 [6]: > 100 µM
- TGI [6]: > 100 µM
- GI50 [7]: 6.6 µM
- TGI [7]: > 100 µM
- GI50 [8]: 27.2 µM
- TGI [8]: > 100 µM
- GI50 [9]: > 71.4 µM
- TGI [9]: > 100 µM
- GI50 [10]: 2.3 µM
- TGI [10]: > 100 µM
- GI50 [11]: > 100 µM
- TGI [11]: > 100 µM
- GI50 [12]: 0.451 µM
- TGI [12]: > 100 µM
- GI50 [13]: 5.34 µM
- TGI [13]: > 100 µM
- GI50 [14]: 3.7 µM
- TGI [14]: > 100 µM
- GI50 [15]: 36.7 µM
- TGI [15]: > 100 µM
- GI50 [16]: 25.2 µM
- TGI [16]: > 100 µM
- GI50 [17]: 4.69 µM
- TGI [17]: > 100 µM
- GI50 [18]: 0.575 µM
- TGI [18]: 3.28 µM
- GI50 [19]: > 100 µM
- TGI [19]: > 100 µM
- GI50 [20]: 14.3 µM
- TGI [20]: > 100 µM
- GI50 [21]: 3.5 µM
- TGI [21]: > 100 µM
- GI50 [22]: > 100 µM
- TGI [22]: > 100 µM
- GI50 [23]: 4.83 µM
- TGI [23]: > 100 µM
- GI50 [24]: 6.88 µM
- TGI [24]: > 100 µM
- GI50 [25]: > 100 µM
- TGI [25]: > 100 µM
- GI50 [26]: 8.16 µM
- TGI [26]: > 100 µM
- GI50 [27]: 5.93 µM
- TGI [27]: > 100 µM
- GI50 [28]: > 100 µM
- TGI [28]: > 100 µM
- GI50 [29]: 24 µM
- TGI [29]: > 100 µM

Reference: PubChem BioAssay (NCI)
